Experimental data: patent US11840686B2, “Modulation of prekallikrein (PKK) expression” (Ionis Pharmaceuticals, Inc., priority 2013, dated 2023)
Strand notation (5' to 3'): a small letter for the sugar, then the base; units joined by * are phosphorothioate-linked, units joined directly phosphodiester-linked; [ ] holds rarer units or linkages, { } end groups; capitals alone tell only the bases. e = 2'-O-(2-methoxyethyl) (MOE); [5mC] = 5-methylcytosine; d = 2'-deoxy (DNA)

Experiments:
[1] = test system: captopril-induced vascular permeability; test: Dose-dependent effect on captopril-induced vascular permeability, Evans Blue OD600 (Example 13); type: in vivo, mouse; settings: for OD600 nm of Evans Blue dye, Colon / OD600 nm of Evans Blue dye, Ears / OD600 nm of Evans Blue dye, Feet / OD600 nm of Evans Blue dye, Intestine: captopril Yes
Procedure: The effect of varying doses on ISIS 482584 on captopril-induced vascular permeability was evaluated.
Group 1 consisted of 4 mice and was treated with PBS administered subcutaneously twice a week for 3 weeks. No other treatment was administered to Group 1 which served as a control group to measure the basal levels of vascular permeability.
Group 2 consisted of 8 mice and was treated with PBS administered subcutaneously twice a week for 3 weeks. At the end of the treatment period, the mice were intraperitoneally administered 20 μg of captopril. Group 2 served as the control group for captopril-induced vascular permeability.
Group 3 consisted of 4 mice and was treated with PBS administered subcutaneously twice a week for 3 weeks. At the end of the treatment period, the mice were intraperitoneally administered 20 μg of captopril. The mice were also intraperitoneally administered 30 μg of Icatibant (HOE-140). […] served as a positive control for inhibition of captopril-induced vascular permeability.
Groups 4, 5, 6, 7, 8, and 9 consisted of 8 mice each and were treated with 2.5 mg/kg, 5 mg/kg, 10 mg/kg, 20 mg/kg, 40 mg/kg, or 80 mg/kg (corresponding to 5 mg/kg, 10 mg/kg, 20 mg/kg, 40 mg/kg, 80 mg/kg, or 160 mg/kg per week), respectively of ISIS 482584 administered subcutaneously twice a week for 3 weeks. At the end of the treatment period, the mice of all the groups were intraperitoneally administered 20 μg of captopril. Groups 4-9 served as the experimental treatment groups for examining the effect of varying doses of ISIS 482584 on captopril-induced vascular permeability.
All the groups were then injected with 30 mg/kg of Evans Blue solution in the tail vein. The mice were sacrificed 30 min after the Evans Blue solution administration and colons, feet, ears, and intestines were harvested. Blood samples were taken through cardiac puncture.
The harvested tissues were placed in formamide solution overnight to leach out the Evans Blue dye. The formamide solution containing feet and ear tissue was heated to 55° C. and left overnight.

[2] = test system: basal vascular permeability; test: Dose-dependent effect on basal vascular permeability, Evans Blue OD600 (Example 14); type: in vivo, mouse; settings: for OD600 nm of Evans Blue dye, Colon / OD600 nm of Evans Blue dye, Ears / OD600 nm of Evans Blue dye, Feet: basal
Procedure: The effect of varying doses on ISIS 482584 on basal vascular permeability was evaluated.
Group 1 consisted of 8 mice and was treated with PBS administered subcutaneously twice a week for 3 weeks. No other treatment was administered to Group 1 which served as a control group to measure the basal levels of vascular permeability.
Group 2 consisted of 4 mice and was treated with PBS administered subcutaneously twice a week for 3 weeks. At the end of the treatment period, the mice were intraperitoneally administered 30 μg of HOE-140. Group 2 served as a positive control for inhibition of basal vascular permeability.
Groups 3, 4, 5, 6, 7, and 8 consisted of 8 mice each and were treated with 2.5 mg/kg, 5 mg/kg, 10 mg/kg, 20 mg/kg, 40 mg/kg, or 80 mg/kg (corresponding to 5 mg/kg, 10 mg/kg, 20 mg/kg, 40 mg/kg, 80 mg/kg, or 160 mg/kg per week), respectively of ISIS 482584 administered subcutaneously twice a week for 3 weeks. […] served as the experimental treatment groups for examining the effect of varying doses of ISIS 482584 on basal vascular permeability.
All the groups were then injected with 30 mg/kg of Evans Blue solution in the tail vein. The mice were sacrificed 30 min after the Evans Blue solution administration and colons, feet, and ears were harvested and examined for permeability defects. Blood samples were taken through cardiac puncture.
The harvested tissues from the feet, colon, and ears were placed in formamide solution overnight to leach out the Evans Blue dye. The formamide solution containing feet and ear tissue was heated to 55° C. and left overnight. Higher OD values are associated with higher levels of permeability.

human PKK mRNA = test: Human PKK mRNA in liver of human KLKB1 transgenic mice (Example 7); type: in vivo; settings: transgenic mice
Method in brief: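 Transgenic mice carrying a 37,390 bp human KLKB1 fragment dosed subcutaneously twice weekly for 3 weeks at 2.5, 5.0, 10 or 20 mg/kg/week; PBS controls. Liver harvested 48 h after the last dose. Human PKK mRNA measured by real-time PCR and expressed as % inhibition versus PBS.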

[3] = dose 5 mg/kg, sc twice a week 3 weeks
[4] = dose 10 mg/kg, sc twice a week 3 weeks
[5] = dose 20 mg/kg, sc twice a week 3 weeks
[6] = dose 40 mg/kg, sc twice a week 3 weeks
[7] = dose 80 mg/kg, sc twice a week 3 weeks
[8] = dose 160 mg/kg, sc twice a week 3 weeks

Molecule: NC(N)=NCCC[C@@H](N)C(=O)N[C@@H](CCCN=C(N)N)C(=O)N1CCC[C@H]1C(=O)N1C[C@H](O)C[C@H]1C(=O)NCC(=O)N[C@@H](Cc1cccs1)C(=O)N[C@@H](CO)C(=O)N1Cc2ccccc2C[C@@H]1C(=O)N1[C@H](C(=O)N[C@@H](CCCN=C(N)N)C(=O)O)C[C@@H]2CCCC[C@@H]21 [HOE-140, Icatibant, reference compound]
- OD600 nm of Evans Blue dye, Colon ([1]; HOE-140 30 μg ip): 0.15
- OD600 nm of Evans Blue dye, Ears ([1]; HOE-140 30 μg ip): 0.04
- OD600 nm of Evans Blue dye, Feet ([1]; HOE-140 30 μg ip): 0.03
- OD600 nm of Evans Blue dye, Intestine ([1]; HOE-140 30 μg ip): 0.10
- OD600 nm of Evans Blue dye, Colon ([2]; HOE-140 30 μg ip): 0.24
- OD600 nm of Evans Blue dye, Ears ([2]; HOE-140 30 μg ip): 0.047
- OD600 nm of Evans Blue dye, Feet ([2]; HOE-140 30 μg ip): 0.09

Molecule: ISIS 482584: 5-10-5 MOE gapmer targeting murine PKK, GGCATATTGGTTTTTGGAAT; SEQ ID NO: 2244 (antisense eG*eG*e[5mC]*eA*eT*dA*dT*dT*dG*dG*dT*dT*dT*dT*dT*eG*eG*eA*eA*eT)
- OD600 nm of Evans Blue dye, Colon [1, 3]: 0.41
- OD600 nm of Evans Blue dye, Ears [1, 3]: 0.05
- OD600 nm of Evans Blue dye, Feet [1, 3]: 0.10
- OD600 nm of Evans Blue dye, Intestine [1, 3]: 0.17
- OD600 nm of Evans Blue dye, Colon [1, 4]: 0.41
- OD600 nm of Evans Blue dye, Ears [1, 4]: 0.05
- OD600 nm of Evans Blue dye, Feet [1, 4]: 0.10
- OD600 nm of Evans Blue dye, Intestine [1, 4]: 0.19
- OD600 nm of Evans Blue dye, Colon [1, 5]: 0.40
- OD600 nm of Evans Blue dye, Ears [1, 5]: 0.07
- OD600 nm of Evans Blue dye, Feet [1, 5]: 0.11
- OD600 nm of Evans Blue dye, Intestine [1, 5]: 0.20
- OD600 nm of Evans Blue dye, Colon [1, 6]: 0.36
- OD600 nm of Evans Blue dye, Ears [1, 6]: 0.05
- OD600 nm of Evans Blue dye, Feet [1, 6]: 0.10
- OD600 nm of Evans Blue dye, Intestine [1, 6]: 0.20
- OD600 nm of Evans Blue dye, Colon [1, 7]: 0.21
- OD600 nm of Evans Blue dye, Ears [1, 7]: 0.03
- OD600 nm of Evans Blue dye, Feet [1, 7]: 0.04
- OD600 nm of Evans Blue dye, Intestine [1, 7]: 0.17
- OD600 nm of Evans Blue dye, Colon [1, 8]: 0.26
- OD600 nm of Evans Blue dye, Ears [1, 8]: 0.05
- OD600 nm of Evans Blue dye, Feet [1, 8]: 0.10
- OD600 nm of Evans Blue dye, Intestine [1, 8]: 0.15
- captopril-induced vascular permeability ([1]; higher doses (Groups 4, 5, and 6) vs PBS control group (Group 2)): reduced levels of captopril-induced vascular permeability
- basal vascular permeability ([2]; all doses (Groups 3-8), most of the tissues, vs PBS control): reduced basal vascular permeability
- OD600 nm of Evans Blue dye, Colon ([2]; 5 mg/kg/week sc, 3 weeks): 0.32
- OD600 nm of Evans Blue dye, Ears ([2]; 5 mg/kg/week sc, 3 weeks): 0.009
- OD600 nm of Evans Blue dye, Feet ([2]; 5 mg/kg/week sc, 3 weeks): 0.11
- OD600 nm of Evans Blue dye, Colon ([2]; 10 mg/kg/week sc, 3 weeks): 0.31
- OD600 nm of Evans Blue dye, Ears ([2]; 10 mg/kg/week sc, 3 weeks): 0.015
- OD600 nm of Evans Blue dye, Feet ([2]; 10 mg/kg/week sc, 3 weeks): 0.10
- OD600 nm of Evans Blue dye, Colon ([2]; 20 mg/kg/week sc, 3 weeks): 0.26
- OD600 nm of Evans Blue dye, Ears ([2]; 20 mg/kg/week sc, 3 weeks): 0.009
- OD600 nm of Evans Blue dye, Feet ([2]; 20 mg/kg/week sc, 3 weeks): 0.11
- OD600 nm of Evans Blue dye, Colon ([2]; 40 mg/kg/week sc, 3 weeks): 0.27
- OD600 nm of Evans Blue dye, Ears ([2]; 40 mg/kg/week sc, 3 weeks): 0.011
- OD600 nm of Evans Blue dye, Feet ([2]; 40 mg/kg/week sc, 3 weeks): 0.11
- OD600 nm of Evans Blue dye, Colon ([2]; 80 mg/kg/week sc, 3 weeks): 0.24
- OD600 nm of Evans Blue dye, Ears ([2]; 80 mg/kg/week sc, 3 weeks): 0.014
- OD600 nm of Evans Blue dye, Feet ([2]; 80 mg/kg/week sc, 3 weeks): 0.09
- OD600 nm of Evans Blue dye, Colon ([2]; 160 mg/kg/week sc, 3 weeks): 0.25
- OD600 nm of Evans Blue dye, Ears ([2]; 160 mg/kg/week sc, 3 weeks): 0.019
- OD600 nm of Evans Blue dye, Feet ([2]; 160 mg/kg/week sc, 3 weeks): 0.11

Molecule: Tes Ges mCes Aes Aes Gds Tds mCds Tds mCds Tds Tds Gds Gds mCds Aes Aes Aes mCes Ae [ISIS 546254]
- human PKK mRNA inhibition (human PKK mRNA; 2.5 mg/kg/week s.c. twice a week for 3 weeks): 31%
- human PKK mRNA inhibition (human PKK mRNA; 5.0 mg/kg/week s.c. twice a week for 3 weeks): 55%
- human PKK mRNA inhibition (human PKK mRNA; 10 mg/kg/week s.c. twice a week for 3 weeks): 84%
- human PKK mRNA inhibition (human PKK mRNA; 20 mg/kg/week s.c. twice a week for 3 weeks): 83%
